# Data taken from patent publication US12234211B2, “Cycloolefin substituted heteroaromatic compounds and their use” (HUTCHISON MEDIPHARMA LIMITED, priority 2017, dated 2025).
# Columns and labels:
# IDH2-R140Q = biological target: T1, IDH2-R140Q (Homo sapiens, UniProt P48735, R140Q); experiment: Fluorescent determination of IDH2-R140Q cell activity (2-HG in U87MGR140Q cells); assay type: cell-based; details: 72 hours incubation, read-out: IC50 (2-HG inhibition)
# T1 construct: expressed in transfected cells
# T1 sequence (P48735 40-452 R140Q): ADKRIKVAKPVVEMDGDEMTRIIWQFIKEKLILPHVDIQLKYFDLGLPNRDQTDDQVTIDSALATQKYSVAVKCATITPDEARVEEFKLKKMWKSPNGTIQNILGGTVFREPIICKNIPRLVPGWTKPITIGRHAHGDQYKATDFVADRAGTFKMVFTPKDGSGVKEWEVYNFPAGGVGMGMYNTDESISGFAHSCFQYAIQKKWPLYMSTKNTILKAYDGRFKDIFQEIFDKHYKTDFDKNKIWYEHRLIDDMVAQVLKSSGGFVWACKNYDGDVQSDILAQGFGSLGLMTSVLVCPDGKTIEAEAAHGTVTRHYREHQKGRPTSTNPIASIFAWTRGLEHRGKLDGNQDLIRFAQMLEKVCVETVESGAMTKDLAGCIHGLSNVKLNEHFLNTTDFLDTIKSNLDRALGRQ
# IDH1-R132H = biological target: T2, IDH1-R132H (Homo sapiens, UniProt O75874, R132H); experiment: Fluorescent determination of IDH1-R132H cell activity (2-HG in U87MGR132H cells); assay type: cell-based; details: 2-HG inhibition in U87MGR132H cells transfected with IDH1-R132H mutant plasmid
# T2 construct: expressed in transfected cells; host or cells: U87MG cells (U87MGR132H)
# T2 sequence (O75874 whole entry R132H): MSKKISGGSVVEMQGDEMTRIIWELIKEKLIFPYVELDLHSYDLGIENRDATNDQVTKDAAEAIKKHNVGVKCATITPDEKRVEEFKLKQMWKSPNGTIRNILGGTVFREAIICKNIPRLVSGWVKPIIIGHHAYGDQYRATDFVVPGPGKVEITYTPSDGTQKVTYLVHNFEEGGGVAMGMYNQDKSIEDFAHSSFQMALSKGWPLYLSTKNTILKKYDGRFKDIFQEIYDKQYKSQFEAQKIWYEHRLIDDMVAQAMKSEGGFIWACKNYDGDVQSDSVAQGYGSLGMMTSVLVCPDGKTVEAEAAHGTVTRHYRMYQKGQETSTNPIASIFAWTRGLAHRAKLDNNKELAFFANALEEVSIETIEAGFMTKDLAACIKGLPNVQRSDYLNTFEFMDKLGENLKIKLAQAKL
IC50 (IDH2-R140Q),IC50 (IDH1-R132H),Compound
368 nM,628 nM,"C[C@@H](Nc1nc(N[C@@H]2CCC(F)(F)C2)nc(C2=C(F)C(O)C(F)CC2)n1)C(F)(F)F (single isomer, unassigned) [Compound 233]"
164 nM,1910 nM,"OC1CCCCC(c2nc(NC3CC(F)(F)C3)nc(NC3CC(F)(F)C3)n2)=C1F (stereo not shown) [Compound 39, (*)3-(4,6-Bis((3,3-difluorocyclobutyl)amino)-1,3,5-triazin-2-yl)-2-fluorocyclohept-2-en-1-ol]"
106 nM,450 nM,C[C@@H](Nc1nc(NC2CC(F)(F)C2)nc(C2=C(F)C(O)CCCC2)n1)C(F)(F)F (stereo partly shown) [Compound 40]
297 nM,1630 nM,C[C@@H](Nc1nc(NC(CF)CF)nc(C2=C(F)C(O)CCC2)n1)C(F)(F)F (stereo partly shown) [Compound 41]
59 nM,5640 nM,CC(C)(C)ONc1nc(Nc2ccnc(Cl)c2)nc(C2=C(F)C(O)CCC2)n1 (stereo not shown) [Compound 47]
125 nM,6040 nM,CC(C)Nc1nc(NC2CC(F)(F)C2)nc(C2=C(F)C(O)CCC2)n1 (stereo not shown) [Compound 51]
229 nM,2240 nM,[2H]C([2H])([2H])C([2H])(Nc1nc(N[C@H](C)C(F)(F)F)nc(C2=C(F)C(O)CCC2)n1)C([2H])([2H])[2H] (stereo partly shown) [Compound 52]
15 nM,1680 nM,[2H]C([2H])([2H])C([2H])(Nc1nc(Nc2ccnc(C(F)(F)F)c2)nc(C2=C(F)C(O)CCC2)n1)C([2H])([2H])[2H] (stereo not shown) [Compound 54]
590 nM,> 10000 nM,CC(C)(C)ONc1nc(Nc2cc(C#N)ccn2)nc(C2=C(F)C(O)CCC2)n1 (stereo not shown) [Compound 60]
170 nM,> 10000 nM,CC(C)(C)ONc1nc(Nc2cc(Cl)ccn2)nc(C2=C(F)C(O)CCC2)n1 (stereo not shown) [Compound 61]
1340 nM,2700 nM,CC(C)Nc1nc(Nc2ccc3ccccc3n2)nc(C2=C(F)C(O)CCC2)n1 (stereo not shown) [Compound 62]
1630 nM,> 10000 nM,CC(C)Nc1nc(Nc2ccc3c(cnn3C)c2)nc(C2=C(F)C(O)CCC2)n1 (stereo not shown) [Compound 64]
152 nM,> 10000 nM,CC(C)Nc1nc(Nc2ccc3sncc3c2)nc(C2=C(F)C(O)CCC2)n1 (stereo not shown) [Compound 65]
2370 nM,> 10000 nM,CC(C)(O)CNc1nc(Nc2ccn3nccc3c2)nc(C2=C(F)C(O)CCC2)n1 (stereo not shown) [Compound 67]
64 nM,> 10000 nM,CC(C)(C)ONc1nc(Nc2ccnc(F)c2)nc(C2=C(F)C(O)CCC2)n1 (stereo not shown) [Compound 73]
34 nM,7440 nM,CC(C)Nc1nc(Nc2ccnc(F)c2)nc(C2=C(F)C(O)CCC2)n1 (stereo not shown) [Compound 74]
218 nM,> 10000 nM,CC(C)(C)ONc1nc(Nc2cc(C(F)(F)F)ncn2)nc(C2=C(F)C(O)CCC2)n1 (stereo not shown) [Compound 75]
69 nM,1410 nM,CC(C)CNc1nc(N[C@H](C)C(F)(F)F)nc(C2=C(F)C(O)CCC2)n1 (stereo partly shown) [Compound 78]
106 nM,1300 nM,C[C@@H](Nc1nc(NCC(F)(F)F)nc(C2=C(F)C(O)CCC2)n1)C(F)(F)F (stereo partly shown) [Compound 79]
79 nM,2700 nM,C[C@@H](Nc1nc(NCC2CC2)nc(C2=C(F)C(O)CCC2)n1)C(F)(F)F (stereo partly shown) [Compound 80]
99 nM,3570 nM,CCCNc1nc(N[C@H](C)C(F)(F)F)nc(C2=C(F)C(O)CCC2)n1 (stereo partly shown) [Compound 81]
75 nM,181 nM,"C[C@@H](Nc1nc(N[C@H](C)C(F)(F)F)nc(C2=C(F)C(O)CCC2)n1)C(F)(F)F (stereo partly drawn) [Compound 82, (*)3-(4,6-Bis(((R)-1,1,1-trifluoropropan-2-yl)amino)-1,3,5-triazin-2-yl)-2-fluorocyclohex-2-en-6,6-D2-1-ol]"
203 nM,282 nM,"C[C@@H](Nc1nc(N[C@H](C)C(F)(F)F)nc(C2=C(F)C(O)CCC2)n1)C(F)(F)F (stereo partly drawn) [Compound 83, 3-(4,6-bis(((R)-1,1,1-trifluoropropan-2-yl)amino)-1,3,5-triazin-2-yl)-2-fluorocyclohex-2-en-1,6,6-D3-1-ol]"
57 nM,2960 nM,[2H]C1([2H])CCC(c2nc(NOC(C)(C)C)nc(Nc3ccnc(C(F)(F)F)c3)n2)=C(F)C1O (stereo not shown) [Compound 89]
177 nM,476 nM,C[C@@H](Nc1nc(NC2CCC(F)(F)CC2)nc(C2=CC(O)CCC2)n1)C(F)(F)F (stereo partly shown) [Compound 181]

IC50 (IDH2-R140Q),IC50 (IDH1-R132H),Compound
1500 nM,> 10000 nM,CC(C)(O)CNc1nc(Nc2ccc3sncc3c2)nc(C2=C(F)C(O)CCC2)n1 (stereo not shown) [Compound 199]
209 nM,> 10000 nM,Cc1cc(Nc2nc(NOC(C)(C)C)nc(C3=C(F)C(O)CCC3)n2)ccn1 (stereo not shown) [Compound 204]
803 nM,> 10000 nM,Cc1nccc(Nc2nc(NOC(C)(C)C)nc(C3=C(F)C(O)CCC3)n2)n1 (stereo not shown) [Compound 205]
63 nM,> 10000 nM,CCONc1nc(Nc2ccnc(C(F)(F)F)c2)nc(C2=C(F)C(O)C(F)(F)CC2)n1 (stereo not shown) [Compound 212]
38 nM,> 10000 nM,OC1C(F)=C(c2nc(NOCC3CC3)nc(Nc3ccnc(C(F)(F)F)c3)n2)CCC1(F)F (stereo not shown) [Compound 213]
108 nM,> 10000 nM,CC(C)(C)ONc1nc(Nc2ccnc(C(F)(F)F)n2)nc(C2=C(F)C(O)C(F)(F)CC2)n1 (stereo not shown) [Compound 214]
79 nM,> 10000 nM,CC(C)(C)ONc1nc(Nc2ccnc(F)c2)nc(C2=C(F)C(O)C(F)(F)CC2)n1 (stereo not shown) [Compound 215]
82 nM,8520 nM,CC(C)(C)ONc1nc(Nc2ccnc(Cl)c2)nc(C2=C(F)C(O)C(F)(F)CC2)n1 (stereo not shown) [Compound 216]
69 nM,> 10000 nM,CCCONc1nc(Nc2ccnc(C(F)(F)F)c2)nc(C2=C(F)C(O)C(F)(F)CC2)n1 (stereo not shown) [Compound 217]
381 nM,> 10000 nM,OC1C(F)=C(c2nc(Nc3ccnc(C(F)(F)F)c3)nc(N3CCC(F)(F)C3)n2)CCC1(F)F (stereo not shown) [Compound 218]
59 nM,2880 nM,OC1C(F)=C(c2nc(Nc3ccnc(C(F)(F)F)c3)nc(NC(C3CC3)C3CC3)n2)CCC1(F)F (stereo not shown) [Compound 220]
137 nM,4650 nM,C[C@@H](Nc1nc(NC2CC2)nc(C2=C(F)C(O)CCC2)n1)C(F)(F)F (stereo partly shown) [Compound 224]
37 nM,1530 nM,CCCNc1nc(N[C@H](C)C(F)(F)F)nc(C2=C(F)C(O)[C@@H](F)CC2)n1 (stereo partly shown) [Compound 231]
78 nM,1760 nM,"C[C@@H](Nc1nc(NCC2CC2)nc(C2=C(F)C(O)C(F)(F)CC2)n1)C(F)(F)F (stereo partly drawn) [Compound 234, 3-(4-((Cyclopropylmethyl)amino)-6-(((R)-1,1,1-trifluoropropan-2-yl)amino)-1,3,5-triazin-2-yl)-2,6,6-trifluorocyclohex-2-en-1-ol]"
984 nM,> 10000 nM,C[C@@H](Nc1nc(NCCF)nc(C2=C(F)C(O)CCC2)n1)C(F)(F)F (stereo partly shown) [Compound 240]
100 nM,2060 nM,OC1CCCC(c2nc(NCC(F)(F)F)nc(NC3CC(F)(F)C3)n2)=C1F (stereo not shown) [Compound 241]
53 nM,1080 nM,CC(C)Nc1nc(N[C@H](C)C(F)(F)F)nc(C2=C(F)C(O)C(F)(F)CC2)n1 (stereo partly shown) [Compound 244]
94 nM,2230 nM,CC(C)Nc1nc(NC2CC(F)(F)C2)nc(C2=C(F)C(O)C(F)(F)CC2)n1 (stereo not shown) [Compound 261]
33 nM,43 nM,"C[C@@H](Nc1nc(N[C@H](C)C(F)(F)F)nc(C2=C(F)C(O)C(F)CC2)n1)C(F)(F)F (stereo partly drawn) [Compound 266, 3-(4,6-Bis(((R)-1,1,1-trifluoropropan-2-yl)amino)-1,3,5-triazin-2-yl)-2,6-difluorocyclohex-2-en-1-D-1-ol]"
1330 nM,3570 nM,"C[C@@H](Nc1nc(N[C@H](C)C(F)(F)F)nc(C2=C(F)C(O)C(F)CC2)n1)C(F)(F)F (stereo partly drawn) [Compound 267, 3-(4,6-Bis(((R)-1,1,1-trifluoropropan-2-yl)amino)-1,3,5-triazin-2-yl)-2,6-difluorocyclohex-2-en-1-D-1-ol]"
349 nM,939 nM,"C[C@@H](Nc1nc(N[C@H](C)C(F)(F)F)nc(C2=C(F)C(O)C(F)CC2)n1)C(F)(F)F (stereo partly drawn) [Compound 268, 3-(4,6-Bis(((R)-1,1,1-trifluoropropan-2-yl)amino)-1,3,5-triazin-2-yl)-2,6-difluorocyclohex-2-en-1-D-1-ol]"
137 nM,296 nM,"C[C@@H](Nc1nc(N[C@H](C)C(F)(F)F)nc(C2=C(F)C(O)C(F)CC2)n1)C(F)(F)F (stereo partly drawn) [Compound 269, 3-(4,6-Bis(((R)-1,1,1-trifluoropropan-2-yl)amino)-1,3,5-triazin-2-yl)-2,6-difluorocyclohex-2-en-1-D-1-ol]"
84 nM,3280 nM,"[2H]C1(O)C(F)=C(c2nc(NC(C)C)nc(NC3CC(F)(F)C3)n2)CCC1(F)F [Compound 274, 3-(4-((3,3-difluorocyclobutyl)amino)-6-(isopropylamino)-1,3,5-triazin-2-yl)-2,6,6-trifluorocyclohex-2-en-1-D-1-ol]"
62 nM,8020 nM,CC(C)(C)ONc1nc(Nc2ccnc(C(F)(F)F)c2)nc(C2=C(F)C(O)C(F)(F)CC2)n1 (stereo not shown) [Compound 275]
81 nM,8370 nM,[2H]C1(O)C(F)=C(c2nc(NOC(C)(C)C)nc(Nc3ccnc(C(F)(F)F)c3)n2)CCC1(F)F (stereo not shown) [Compound 276]
